According to EP0869784B1, “INHIBITION OF FATTY ACID SYNTHASE AS A MEANS TO REDUCE ADIPOCYTE MASS” (THE JOHNS HOPKINS UNIVERSITY, priority 1995, dated 1997):

Assays:
[1] = Half life of the drug in ascites; design: species or system mice; conditions: mouse, in vivo, ip
[2] = tested on: OVCAR-3 ascites tumor fatty acid synthesis; experiment: In vivo metabolic labeling with [U-3H]-acetate, tumor fatty acid synthesis; design: species or system mice
Method: (§1) Fatty acid synthesis was measured using metabolic labeling in vivo with [U-^3H]-acetate as described in Pizer, et al., 1996, Cancer Res., 56:1189-1193.

[3] = tested on: hepatic fatty acid synthesis; experiment: In vivo metabolic labeling with [U-3H]-acetate, liver fatty acid synthesis; design: species or system mice
Method: as §1
Thus, the reversible cerulenin-induced weight loss may be the result of fatty acid synthesis inhibition as well as decreased appetite in the mice.
(§2) HL60 cells were labeled with [U^14C]-acetate in the presence of 10 µg/ml C-75; cells were incubated in 5% CO2 at 37°C. Results are plotted in Figure 3; each time point was performed in triplicate, error bars are the standard deviation.

[4] = Cerulenin-induced weight loss in athymic nude mice (Example 2), with necropsy from a parallel experiment; type: in vivo
Method: Athymic mice received 60 mg/kg cerulenin i.p. in 25% DMSO/saline or vehicle alone each day for 1 week. The animal weights were recorded every two days up to day 15. Average animal weight for both groups of mice is plotted against treatment day in Figure 1. Error bars represent standard error of the mean. […] In addition there was a 28% reduction of feces mass in the cerulenin-treated group consistent with deceased food intake.

[5] = Cerulenin-induced weight loss in nude mice with OVCAR-3 xenografts (Example 3); type: in vivo, Athymic mice; conditions: 80 mg/kg i.p. for 1 week
Method: Cerulenin was administered as described in Example 2 above to mice which received 10^7 OVCAR-3 human ovarian cancer cells. Athymic mice received 0.1 ml of packed NIH-OVCAR-3 cells (approximately […]) intraperitoneally on treatment day 0. Beginning on day 1, treated mice received 80 mg/kg cerulenin i.p. in 25% DMSO/saline for 1 week, while untreated mice received vehicle alone. […] Weight loss constitutes the major toxicity observed during fatty acid synthesis inhibition therapy with cerlenin; the mice regained inception body mass within 10 days following treatment.

[6] = tested on: HL60 human promyelocytic leukemia cells; experiment: [U14C]-acetate incorporation by HL60 cells; type: cell-based; conditions: 10 µg/ml, time dependent, Figure 3
Method: as §2

[7] = tested on: OVCAR-3 cells; experiment: Survival of nude mice inoculated with OVCAR-3 cells (Examples 8 and 9); type: in vivo
Method: (§3) 20 nude mice (Harland) mice were inoculated on Day 0 with 0.1 ml packed OVCAR-3 cells. 10 mice received transisomer of C-75 (20 mg/kg) in 100 ul RPMI on days 1, 3, and 5. 10 mice received 100 ul of RPMI i.p. alone on days 1, 3, and 5. Animals were weighed on days indicated on Figure 6. Animals were sacrificed when 30% increase in body weight occurred from tumor growth.
(§4) This indicates a dose response to the anti-tumor effect of C-75.

[8] = C-75-induced weight loss in OVCAR-3 xenograft mice, pilot study (Example 6); type: in vivo; conditions: 60 mg/kg on days 1, 3, and 5
Method: C-75 was tested in vivo in a pilot study against the OVCAR-3 xenograft model of Example 4. Ten mice were inoculated intraperitoneally with 10^7 OVCAR-3 cells. The mice were treated on days 1, 3, and 5 with either DMSO or 60 mg/kg C-75. Results are plotted in Figure 4. C-75 treated mice experienced a 20% reduction in weight loss by day eight. Animals regained their original weight by day 15, increased their weight to nearly 110% of original body weight by day 24, and achieved original body weight by day 34.

[9] = biological target: FAS (Homo sapiens, UniProt P49327); experiment: FAS activity in hypotonic lysate of OVCAR-3 ascites cells (malonyl-CoA dependent oxidation of NADPH at 340 nm); type: biochemical
Sequence of FAS (P49327 whole entry): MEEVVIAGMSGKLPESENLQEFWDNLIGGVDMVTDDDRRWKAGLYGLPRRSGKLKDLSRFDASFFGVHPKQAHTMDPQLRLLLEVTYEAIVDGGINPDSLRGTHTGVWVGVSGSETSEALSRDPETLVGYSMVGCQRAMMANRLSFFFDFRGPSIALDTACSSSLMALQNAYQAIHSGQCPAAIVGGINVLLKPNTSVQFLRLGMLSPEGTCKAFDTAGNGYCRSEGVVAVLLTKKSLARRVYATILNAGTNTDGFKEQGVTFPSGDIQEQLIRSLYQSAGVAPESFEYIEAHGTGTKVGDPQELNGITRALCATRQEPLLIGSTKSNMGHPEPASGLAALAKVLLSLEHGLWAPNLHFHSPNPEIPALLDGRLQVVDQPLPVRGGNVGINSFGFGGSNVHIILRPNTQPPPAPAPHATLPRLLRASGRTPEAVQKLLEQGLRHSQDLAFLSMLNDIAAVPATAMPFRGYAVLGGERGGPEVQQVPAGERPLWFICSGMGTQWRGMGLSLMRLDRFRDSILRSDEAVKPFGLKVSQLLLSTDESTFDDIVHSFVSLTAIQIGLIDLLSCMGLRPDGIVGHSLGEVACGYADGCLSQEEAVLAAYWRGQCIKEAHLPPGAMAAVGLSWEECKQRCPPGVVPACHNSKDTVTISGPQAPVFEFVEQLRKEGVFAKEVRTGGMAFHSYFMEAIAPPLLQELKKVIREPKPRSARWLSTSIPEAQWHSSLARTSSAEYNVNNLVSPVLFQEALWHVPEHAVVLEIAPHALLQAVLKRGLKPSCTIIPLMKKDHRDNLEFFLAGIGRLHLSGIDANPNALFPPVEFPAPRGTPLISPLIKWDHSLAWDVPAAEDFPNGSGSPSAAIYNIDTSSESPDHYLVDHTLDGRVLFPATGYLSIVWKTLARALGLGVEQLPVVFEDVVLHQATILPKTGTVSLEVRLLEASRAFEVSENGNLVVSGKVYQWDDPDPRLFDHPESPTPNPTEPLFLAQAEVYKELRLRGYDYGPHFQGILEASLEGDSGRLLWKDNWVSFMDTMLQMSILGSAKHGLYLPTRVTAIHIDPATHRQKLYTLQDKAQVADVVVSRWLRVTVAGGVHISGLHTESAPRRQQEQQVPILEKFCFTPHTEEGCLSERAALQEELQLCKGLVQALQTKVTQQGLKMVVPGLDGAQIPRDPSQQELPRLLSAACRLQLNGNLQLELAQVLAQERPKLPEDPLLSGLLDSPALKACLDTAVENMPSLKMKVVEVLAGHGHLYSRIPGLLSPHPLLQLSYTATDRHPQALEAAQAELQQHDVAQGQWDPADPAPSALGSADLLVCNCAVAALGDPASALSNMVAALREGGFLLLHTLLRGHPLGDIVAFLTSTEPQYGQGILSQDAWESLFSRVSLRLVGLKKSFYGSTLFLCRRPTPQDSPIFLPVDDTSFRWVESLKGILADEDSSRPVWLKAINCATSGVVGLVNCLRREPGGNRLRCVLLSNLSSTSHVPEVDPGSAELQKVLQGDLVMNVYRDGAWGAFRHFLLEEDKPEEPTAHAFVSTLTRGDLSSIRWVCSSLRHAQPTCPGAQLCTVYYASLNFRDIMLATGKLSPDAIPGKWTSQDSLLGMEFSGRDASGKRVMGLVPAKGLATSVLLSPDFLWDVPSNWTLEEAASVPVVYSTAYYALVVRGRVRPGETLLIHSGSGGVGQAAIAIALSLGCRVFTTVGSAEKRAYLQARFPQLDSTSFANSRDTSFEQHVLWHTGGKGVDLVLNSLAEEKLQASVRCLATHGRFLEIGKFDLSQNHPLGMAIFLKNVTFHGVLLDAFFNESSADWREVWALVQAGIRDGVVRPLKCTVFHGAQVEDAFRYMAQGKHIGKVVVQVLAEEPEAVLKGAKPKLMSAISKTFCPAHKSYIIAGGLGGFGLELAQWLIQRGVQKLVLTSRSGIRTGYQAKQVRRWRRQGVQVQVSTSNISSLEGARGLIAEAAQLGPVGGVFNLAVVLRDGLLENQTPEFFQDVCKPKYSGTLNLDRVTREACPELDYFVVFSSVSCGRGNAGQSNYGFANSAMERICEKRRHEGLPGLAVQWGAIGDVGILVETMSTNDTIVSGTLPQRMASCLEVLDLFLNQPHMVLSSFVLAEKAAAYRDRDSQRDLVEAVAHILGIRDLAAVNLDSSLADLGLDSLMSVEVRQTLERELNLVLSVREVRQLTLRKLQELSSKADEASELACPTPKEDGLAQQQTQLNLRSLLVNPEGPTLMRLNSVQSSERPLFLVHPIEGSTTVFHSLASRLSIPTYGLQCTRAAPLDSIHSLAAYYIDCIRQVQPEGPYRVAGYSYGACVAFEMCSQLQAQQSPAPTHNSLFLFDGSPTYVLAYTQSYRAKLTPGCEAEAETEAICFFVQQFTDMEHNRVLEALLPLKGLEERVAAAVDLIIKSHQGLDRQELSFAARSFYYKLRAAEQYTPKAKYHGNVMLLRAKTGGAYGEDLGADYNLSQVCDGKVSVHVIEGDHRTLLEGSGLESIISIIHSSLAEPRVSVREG
Text: Compounds which inhibit FAS can be identified by testing the ability of a compound to inhibit fatty acid synthase activity using purified enzyme. Fatty acid synthase activity can be measured spectrophotometrically based on the oxidation of NADPH, or radioactively by measuring the incorporation of radiolabeled acetyl- or malonyl-CoA. (Dils, et al, Methods Enzymol, 35:74-83). FAS inhibitors are exemplified in U.S. patent application 08/188,425 and International patent publication WO 94/02108, both of which are incorporated herein by reference.

[10] = tested on: HL60 human promyelocytic leukemia cells; experiment: HL60 viable cell count with or without palmitate (fatty acid rescue); type: cell-based; conditions: 2.5 ug/ml; palmitate 80 micromolar; viable cells by trypan blue exclusion, Figure 5
Method: Suitable FAS inhibitors may be identified by a simple test exemplified in Example 7, and in U.S. patent application 08/188,425. Generally, this test uses a tumor cell line in which an FAS inhibitor, typically cerulenin, is cytotoxic. Such cell lines include SKBR-3, ZR-75-1, and preferably HL60. Suitable FAS inhibitors will inhibit growth of such cell lines, but the cells are rescued by exogenous supply of the product of the FAS enzyme (fatty acid). When cell growth is measured in the presence and absence of exogenous fatty acid (e.g., palmitate or oleate), inhibition by specific FAS inhibitors is relieved by the fatty acid.
200,000 HL60 cells were plated in 24-well plates in 1 ml fatty acid free medium with or without palmitate (80 micromolar, complexed to fatty acid free albumin 0.2:1). Cells were treated with 2.5 ug/ml of C-75. Cells were incubated in 5% CO2 at 37°C and viable cells were counted with trypan blue exclusion at 24, […], 72, and 96 hours. Results are plotted in Figure 5; each time point was performed in triplicate, error bars are the standard deviation. […] Note that palmitate alone causes some suppression of HL60 proliferation.

[11] = C-75-induced weight loss in nude mice inoculated with OVCAR-3 cells (Examples 8 and 9); type: in vivo
Method: as §3, §4

[12] = 60 mg/kg i.p. each day for 1 week

Which results are given for C/C=C/C/C=C/CCC(=O)[C@H]1O[C@H]1C(N)=O [cerulenin]?
half-life [1]: < 15 min; inhibition with high dose over standard dose ([2]; high dose 6mg/mouse versus standard dose 2mg/mouse): No augmentation of inhibition; reduction of OVCAR-3 ascites tumor fatty acid synthesis ([2]; intraperitoneal administration as in Example 3): 43%; effect on mean hepatic fatty acid synthesis ([3]; mice with OVCAR-3 ascites tumor, intraperitoneal administration): no effect; inhibition of fatty acid synthesis in liver ([3]; mice without tumor, parallel experiments): ~50%; Water intake [4, 12]: not appreciable altered; reduction of feces mass [4, 12]: 28%; weight relative to original weight ([4]; 60 mg/kg i.p. each day for 1 week, by day 14): 96%; average loss of weight ([4]; 60 mg/kg i.p. each day for 1 week, by day eight): 28%; Observation of the mice (activity) ([4]; during the period of maximal weight loss): normal activity; Liver, microscopically ([4]; necropsy, parallel experiment): unremarkable without necrosis or inflammation; muscle mass, histologically ([4]; necropsy, parallel experiment): no decrease in muscle mass was detected histologically; Necropsy: fat deposits ([4]; parallel experiment): markedly decreased subcutaneous fat and abdominal fat deposits; time to regain inception body mass following treatment [5]: ≤ 10 days; urinalysis, diabetogenic effect [5]: failed to demonstrate any diabetogenic effect; mean weight loss of original body mass ([5]; during the treatment period): 25%

Which “reduction in fatty acid synthesis (label incorporation into phospholipids)” value [6] does the source give for C=C1C(=O)O[C@@H](CCCCCCCC)[C@@H]1C(=O)O (relative stereo) [Example C-75, trans-Tetrahydro-3-methylene-2-oxo-5-n-octyl-4-furancarboxylic acid] here?
Its value is “nearly a three-fold reduction”.

What about the “survival of the xenograft” value ([7]; 20 mg/kg on days 1, 3, and 5, p=0.001 Wilcoxon and Mantel) of the same molecule?
Its value is “increased survival”.

What about the survival ([7]; only one dose, wilcoxon p=0.56, Mantel p=0.52) of the same molecule?
The survival was “trend showing increased survival, but it was not statistically significant”.

What about the “reduction of [U-3H] acetate incorporation into fatty acids in mouse liver” value ([3]; pilot in vivo metabolic labeling studies) of the same molecule?
The value was 30%.

What about the “day by which original body weight was achieved again after the increase” value [8] of the same molecule?
Its value is at most 34 days.

What about the “day by which original weight was regained” value [8] of the same molecule?
Its value is at most 15 days.

And the “weight relative to original body weight” value ([8]; by day 24)?
Its value is about 110%.

And the body weight loss ([8]; by day eight)?
The body weight loss was 20%.

And the “reduction of FAS activity compared to control lysate” value ([9]; 50 µg/ml, 37 °C, 180 min)?
Its value is 3 fold.

What about the FAS activity ([9]; 50 µg/ml, 37 °C, 180 min, control 5.6) of the same molecule?
Its FAS activity is 1.8 nM NADPH oxidized/min.

And the “effect of incubation at 4°” value ([9]; incubation at 4°)?
The value was “abolishes the inhibitory effect”.

And the “rescue from growth inhibition by exogenous fatty acid” value [10]?
Its value is “palmitate rescues HL60 cells from C-75”.

What about the “weight loss in mice” value ([11]; 20 mg/kg on days 1, 3, and 5, Figure 6) of the same molecule?
The value was “causes weight loss”.

What about the “average maximum weight loss” value ([11]; only one dose, on day 3) of the same molecule?
The value was “about 3 grams”.
